Measured values from ChEMBL document CHEMBL1124186, “Synthesis and evaluation of tylosin-related macrolides modified at the aldehyde function: a new series of orally effective antibiotics” (1988).
Converted amounts (≈) assume the structure as drawn.

Legend:
[1] = tested on: Bacteroides fragilis; experiment: In vitro antimicrobial activity against anaerobic bacteria bacteroides fragilis 111; type: functional
[2] = In vitro antimicrobial activity against anaerobic bacteria peptostreptococcus intermedius 1264; type: functional
[3] = tested on: Enterococcus faecium; experiment: In vitro antimicrobial activity against Streptococcus faecium X66; type: functional, streptococcus fae-cium
[4] = tested on: Streptococcus pneumoniae; experiment: In vivo effective dose against experimental infections in mice Streptococcus pneumoniae park when administered sc; type: functional
[5] = tested on: Streptococcus; experiment: In vitro antimicrobial activity against aerobic bacteria Streptococcus B 5; type: functional
[6] = tested on: Staphylococcus epidermidis; experiment: In vitro antimicrobial activity against Staphylococcus epidermidis EPI1; type: functional
[7] = tested on: Staphylococcus aureus; experiment: In vitro antimicrobial activity against aerobic bacteria Staphylococcus aureus V140,; type: functional
[8] = tested on: Streptococcus; experiment: In vitro antimicrobial activity against aerobic bacteria Streptococcus D 8043; type: functional
[9] = tested on: Haemophilus influenzae; experiment: In vitro antimicrobial activity against aerobic bacteria Haemophilus influenzae 76; type: functional
[10] = tested on: Clostridioides difficile; experiment: In vitro antimicrobial activity against anaerobic bacteria Clostridium difficile 2994; type: functional
[11] = tested on: Haemophilus influenzae; experiment: In vitro antimicrobial activity against aerobic bacteria Haemophilus influenzae MX366,; type: functional
[12] = tested on: Staphylococcus aureus; experiment: In vitro antimicrobial activity against aerobic bacteria Staphylococcus aureus V135; type: functional
[13] = tested on: Streptococcus; experiment: In vitro antimicrobial activity against aerobic bacteria Streptococcus D 2041; type: functional
[14] = tested on: Bacteroides fragilis; experiment: In vitro antimicrobial activity against anaerobic bacteria bacteroides fragilis 1877; type: functional
[15] = tested on: Anaerococcus prevotii; experiment: In vitro antimicrobial activity against anaerobic bacteria peptococcus prevoti 1281; type: functional
[16] = tested on: Staphylococcus epidermidis; experiment: In vitro antimicrobial activity against aerobic bacteria Streptococcus epi 222; type: functional
[17] = tested on: Phocaeicola vulgatus; experiment: In vitro antimicrobial activity against anaerobic bacteria bacteroides vulgatus 1211; type: functional
[18] = tested on: Clostridium septicum; experiment: In vitro antimicrobial activity against anaerobic bacteria clostridium septicum 1128; type: functional
[19] = tested on: Haemophilus influenzae; experiment: In vitro antimicrobial activity against aerobic bacteria Haemophilus influenzae 465; type: functional
[20] = tested on: Prevotella melaninogenica; experiment: In vitro antimicrobial activity against anaerobic bacteria bacteroides melaninogenicus 1856,; type: functional
[21] = tested on: Haemophilus parainfluenzae; experiment: In vitro antimicrobial activity against aerobic bacteria Haemophilus parainfluenzae 9796; type: functional
[22] = tested on: Clostridium perfringens; experiment: In vitro antimicrobial activity against anaerobic bacteria clostridium perfringens 81,; type: functional
[23] = tested on: Streptococcus; experiment: In vitro antimicrobial activity against aerobic bacteria Streptococcus D 9960; type: functional
[24] = tested on: Staphylococcus aureus; experiment: In vitro antimicrobial activity against aerobic bacteria Staphylococcus aureus 513E; type: functional
[25] = tested on: Eikenella corrodens; experiment: In vitro antimicrobial activity against anaerobic bacteria bacteroides corrodens 1874; type: functional
[26] = tested on: Collinsella aerofaciens; experiment: In vitro antimicrobial activity against anaerobic bacteria eubacterium aerofaciens 1235; type: functional
[27] = tested on: Staphylococcus aureus; experiment: In vitro antimicrobial activity against Staphylococcus aureus X1; type: functional
[28] = tested on: Staphylococcus epidermidis; experiment: In vitro antimicrobial activity against aerobic bacteria Streptococcus epi 270; type: functional
[29] = tested on: Streptococcus pneumoniae; experiment: In vivo effective dose against experimental infections in mice Streptococcus pneumoniae park when administered orally; type: functional; details: po
[30] = tested on: Fusobacterium necrophorum; experiment: In vitro antimicrobial activity against anaerobic bacteria usobacterium necrophorum 6054A; type: functional
[31] = tested on: Streptococcus pneumoniae; experiment: In vitro antimicrobial activity against Streptococcus pneumoniae; type: functional
[32] = tested on: Prevotella melaninogenica; experiment: In vitro antimicrobial activity against anaerobic bacteria bacteroides melaninogenicus 2736; type: functional
[33] = tested on: Staphylococcus aureus; experiment: In vitro antimicrobial activity against aerobic bacteria Staphylococcus aureus X400; type: functional
[34] = tested on: Staphylococcus aureus; experiment: In vitro antimicrobial activity against aerobic bacteria Staphylococcus aureus V41; type: functional
[35] = tested on: Bacteroides fragilis; experiment: In vitro antimicrobial activity against anaerobic bacteria bacteroides fragilis 1936B,; type: functional
[36] = tested on: Cutibacterium acnes; experiment: In vitro antimicrobial activity against anaerobic bacteria propionibacterium acnes 79; type: functional
[37] = tested on: Streptococcus pyogenes; experiment: In vivo effective dose against experimental infections in rodent caused by Streptococcus pyogenes C203 when administered sc; type: functional
[38] = tested on: Peptostreptococcus anaerobius; experiment: In vitro antimicrobial activity against anaerobic bacteria eubacterium peptostreptococcus anaerobius 1428,; type: functional
[39] = tested on: Fusobacterium; experiment: In vitro antimicrobial activity against anaerobic bacteria fusobacterium symbiosum 1470; type: functional
[40] = tested on: Chlamydia trachomatis; experiment: In vitro antimicrobial activity against chlamydia trachomatis.; type: functional
[41] = tested on: Streptococcus pneumoniae; experiment: In vitro antimicrobial activity against aerobic bacteria Streptococcus pneumoniae B1-438; type: functional, streptococcus pneum
[42] = tested on: Streptococcus pyogenes; experiment: In vivo effective dose against experimental infections in rodent caused by Streptococcus pyogenes C203 when administered orally; type: functional; details: po
[43] = tested on: Peptoniphilus asaccharolyticus; experiment: In vitro antimicrobial activity against anaerobic bacteria peptococcus asaccharolyticus 1302; type: functional
[44] = tested on: Haemophilus influenzae; experiment: In vitro antimicrobial activity against Haemophilus influenzae.; type: functional
[45] = tested on: Streptococcus pyogenes; experiment: In vitro antimicrobial activity against Streptococcus pyogenes C203; type: functional
[46] = tested on: Bacteroides thetaiotaomicron; experiment: In vitro antimicrobial activity against anaerobic bacteria bacteroides thetaiotaomicron 1438; type: functional
[47] = tested on: Streptococcus; experiment: In vitro antimicrobial activity against aerobic bacteria Streptococcus B 14; type: functional

For `CC[C@H]1OC(=O)C[C@@H](O)[C@H](C)[C@@H](O[C@@H]2O[C@H](C)[C@@H](O)[C@H](N(C)C)[C@H]2O)[C@@H](CCOc2ccc(-c3ccccc3)cc2)C[C@@H](C)C(=O)/C=C/C(C)=C/[C@@H]1CO[C@@H]1O[C@H](C)[C@@H](O)[C@@H](OC)[C@H]1OC`, the MIC [1] was 4 µg/mL (≈ 4.32 µM), the MIC [2] was < 0.5 µg/mL and the MIC [3] was 0.5 µg/mL (≈ 0.54 µM). The ED50 [4] was > 20 mg/kg, the MIC [5] was 2 µg/mL (≈ 2.16 µM) and the MIC [6] was 0.5 µg/mL (≈ 0.54 µM). For the same molecule, the MIC [7] was 0.25 µg/mL (≈ 0.27 µM), the MIC [8] was 0.25 µg/mL (≈ 0.27 µM) and the MIC [9] was 16 µg/mL (≈ 17.3 µM). The MIC [10] was < 0.5 µg/mL, the MIC [11] was 16 µg/mL (≈ 17.3 µM) and the MIC [12] was 0.25 µg/mL (≈ 0.27 µM). The MIC [13] was 0.5 µg/mL (≈ 0.54 µM), the MIC [14] was 2 µg/mL (≈ 2.16 µM) and the MIC [15] was 1 µg/mL (≈ 1.08 µM). For the same molecule, the MIC [16] was 0.12 µg/mL (≈ 0.13 µM), the MIC [17] was < 0.5 µg/mL and the MIC [18] was < 0.5 µg/mL. For the same molecule, the MIC [19] was 16 µg/mL (≈ 17.3 µM), the MIC [20] was < 0.5 µg/mL and the MIC [21] was 32 µg/mL (≈ 34.6 µM). The MIC [22] was < 0.5 µg/mL, the MIC [23] was 0.5 µg/mL (≈ 0.54 µM) and the MIC [24] was 0.25 µg/mL (≈ 0.27 µM). For the same molecule, the MIC [25] was 2 µg/mL (≈ 2.16 µM), the MIC [26] was < 0.5 µg/mL and the MIC [27] was 0.5 µg/mL (≈ 0.54 µM). It also gave an MIC [28] of 128 µg/mL (≈ 138 µM), an ED50 [29] of 37 mg/kg and an MIC [30] of 4 µg/mL (≈ 4.32 µM). For the same molecule, the MIC [31] was 0.25 µg/mL (≈ 0.27 µM), the MIC [32] was < 0.5 µg/mL and the MIC [33] was 0.25 µg/mL (≈ 0.27 µM). The MIC [34] was 0.25 µg/mL (≈ 0.27 µM), the MIC [35] was 4 µg/mL (≈ 4.32 µM) and the MIC [36] was < 0.5 µg/mL. The ED50 [37] was > 10 mg/kg, the MIC [38] was < 0.5 µg/mL and the MIC [39] was 2 µg/mL (≈ 2.16 µM). For the same molecule, the MIC [40] was > 2 µg/mL, the MIC [41] was 32 µg/mL (≈ 34.6 µM) and the ED50 [42] was 25 mg/kg. For the same molecule, the MIC [43] was < 0.5 µg/mL, the MIC [44] was 16 µg/mL (≈ 17.3 µM) and the MIC [45] was 0.25 µg/mL (≈ 0.27 µM). For the same molecule, the MIC [46] was 2 µg/mL (≈ 2.16 µM) and the MIC [47] was 1 µg/mL (≈ 1.08 µM).
